System: lipid oxidation in Jinhua ham
Assay: Antioxidation and sensory quality of Jinhua ham slices (AV, POV, chromatic aberration)
Conditions: ham slice soaked 2 min in 0.03% solution, stored at 50±1° C. for 11 days, versus control group
Description: AOB was dissolved in water to produce a 0.03% solution, TBHQ (previously dissolved in ethanol) in the same concentration as control. A slice of Jinhua ham with a thickness of 1 cm was soaked for 2 min, and the effects of AOB on antioxidation and sensory quality of the slice of Jinhua ham were compared.

Structure (SMILES): CC(C)(C)c1cc(O)ccc1O [TBHQ, tert-butyl hydroquinone]
- lipid oxidation (AV and POV): significantly inhibited
